# Laboratory results reported in patent publication US8153784B2, “Imaging of enzyme activity” (The General Hospital Corporation, priority 2004, dated 2012).
# What was measured:
# endogenous mouse MPO [1] = target: T1, endogenous mouse MPO (Mus musculus, UniProt P11247); experiment: LPS/Matrigel experiments, MR imaging; type: in vivo; settings: mice; LPS/Matrigel
# T1 construct: endogenous in cells; host or cells: inflammatory cells recruited by LPS in C57BL6 male mice (Matrigel site in the thigh, or flank muscle myositis)
# T1 sequence (P11247 139-718): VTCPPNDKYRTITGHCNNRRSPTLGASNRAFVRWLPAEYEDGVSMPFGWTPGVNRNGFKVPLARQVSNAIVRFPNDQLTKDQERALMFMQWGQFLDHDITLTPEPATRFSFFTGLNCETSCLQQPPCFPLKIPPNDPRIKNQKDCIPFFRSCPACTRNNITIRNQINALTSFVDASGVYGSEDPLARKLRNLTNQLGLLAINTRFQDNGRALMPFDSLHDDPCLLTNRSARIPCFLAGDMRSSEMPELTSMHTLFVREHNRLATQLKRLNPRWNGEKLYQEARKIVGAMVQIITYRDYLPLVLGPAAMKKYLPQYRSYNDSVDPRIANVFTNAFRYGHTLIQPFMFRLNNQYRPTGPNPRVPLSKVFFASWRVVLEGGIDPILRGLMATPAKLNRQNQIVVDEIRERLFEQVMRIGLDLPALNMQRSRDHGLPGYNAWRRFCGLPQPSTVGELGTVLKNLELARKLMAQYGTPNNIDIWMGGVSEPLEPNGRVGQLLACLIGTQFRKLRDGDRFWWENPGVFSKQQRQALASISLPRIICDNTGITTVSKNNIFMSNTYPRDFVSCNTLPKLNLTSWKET
# Method: (§1) The MR imaging experiments were performed on a 1.5 T GE Excite scanner and a 4.7 T Bruker Pharmascan scanner. For all MR imaging experiments, precontrast T2-(TR=2000, TE=100, ETL=8, NEX=4, fast spin echo sequence) and T1-weighted images (TR=500, TE=11, NEX=4, spin echo sequence) with fat saturation were initially performed to locate the gels or area of inflammation. The substrates (0.3 mmol/kg) were subsequently injected via the tail vein of the mouse. The mouse was immediately imaged after the injection of the contrast agent using multiple T1-weighted sequences with fat saturation for at least 3 hours.
# (§2) Ten-week old C57BL6 male mice were obtained from Jackson Laboratories. A total of 22 mice were used for the study. • 1. MPO/Matrigel imaging experiments: Matrigel™ (Beckton-Dickinson), a […] basement membrane matrix gel was used to immobilize human MPO and glucose oxidase (to supply H2O2 required for detecting MPO oxidative activity, Calbiochem). This was chosen to reflect deposits of human MPO in inflamed tissue in a mouse model. 400 μL of a mixture of Matrigel™ and MEM (Cambrex) was injected slowly into the thighs of each mouse one hour prior to imaging. The right thigh mixture also contained 15 U of MPO and 4 U of glucose oxidase (Calbiochem), while the left thigh mixture contained no enzyme and thus serves as an internal control. […]
# [2] = target: T2, human MPO embedded in Matrigel (Homo sapiens, UniProt P05164); experiment: MPO/Matrigel implant mouse model, T1-weighted MR imaging; type: in vivo; settings: mice, right MPO/Matrigel vs left control, 1.5 T
# T2 construct: purchased BioDesign, Inc
# T2 sequence (P05164 49-745): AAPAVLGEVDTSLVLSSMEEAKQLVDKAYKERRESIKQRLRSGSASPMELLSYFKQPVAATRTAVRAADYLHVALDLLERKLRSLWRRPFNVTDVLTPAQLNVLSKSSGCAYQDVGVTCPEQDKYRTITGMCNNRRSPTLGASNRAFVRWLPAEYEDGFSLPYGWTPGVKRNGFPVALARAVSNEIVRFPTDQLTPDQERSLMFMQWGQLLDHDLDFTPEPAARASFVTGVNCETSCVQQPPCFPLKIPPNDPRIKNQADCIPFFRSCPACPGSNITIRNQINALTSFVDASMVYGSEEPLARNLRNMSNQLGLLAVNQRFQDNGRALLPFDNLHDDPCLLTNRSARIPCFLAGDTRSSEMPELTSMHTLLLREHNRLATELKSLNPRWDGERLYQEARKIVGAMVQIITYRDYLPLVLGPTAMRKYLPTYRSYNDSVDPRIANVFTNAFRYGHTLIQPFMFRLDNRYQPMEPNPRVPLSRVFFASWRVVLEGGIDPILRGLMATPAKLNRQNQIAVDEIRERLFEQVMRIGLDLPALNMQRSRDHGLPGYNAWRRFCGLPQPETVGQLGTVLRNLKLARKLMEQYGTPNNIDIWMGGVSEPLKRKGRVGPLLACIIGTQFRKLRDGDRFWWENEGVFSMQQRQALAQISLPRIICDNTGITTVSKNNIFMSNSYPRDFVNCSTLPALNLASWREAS
# Method: To evaluate the monomeric substrates in vivo, we devised a mouse model that harbored 400 μL of Matrigel basement membrane matrix gel mixed 1:1 by volume with a solution containing 15 U of human MPO and glucose oxidase (as a source of hydrogen peroxide) that was injected into the right flank of the mouse. The left flank was injected with the enzyme-free Matrigel mixture. We subsequently performed T1-weighted MR imaging after the intravenous injection of Gd-DTPA-diSer substrate at the dose of […].
# as §1
# Ten-week old C57BL6 male mice were obtained from Jackson Laboratories. A total of 22 mice were used for the study. • 1. MPO/Matrigel imaging experiments: Matrigel™ (Beckton-Dickinson), a […] basement membrane matrix gel was used to immobilize human MPO and glucose oxidase (to supply H2O2 required for detecting MPO oxidative activity, Calbiochem). This was chosen to reflect deposits of human MPO in inflamed tissue in a mouse model. 400 μL of a mixture of Matrigel™ and MEM (Cambrex) was injected slowly into the thighs of each mouse one hour prior to imaging. The right thigh mixture also contained 15 U of MPO and 4 U of glucose oxidase (Calbiochem), while the left thigh mixture contained no enzyme and thus serves as an internal control. A total of 15 mice were used (3 mice each for 5-HT-DOTA(Gd), bis-5-HT-DTPA(Gd), bis-5-HT-DTPA-^111In, bis-tyramide-DTPA(Gd), and DTPA(Gd)). • 2. LPS/Matrigel experiments (n=3): This model was developed to induce endogeneous mouse MPO secretion and activation. 200 μL total volume Matrigel containing 10% heparin was injected slowly into the thighs of the mice 4 days prior to imaging. The right-sided mixture also contained E. coli lipopolysaccharide (LPS) at 10 μg/mL. One mouse was sacrificed for immunohistochemistry. • 3. Myositis experiments (n=4): LPS at 100 μg/mL in PBS was injected into each mouse intramuscularly in the right flank to produce myositis. The mice are imaged 24 hours after injection.
# For normalized signal intensity measured on T1-weighted images, mean±standard deviation (SD) values were calculated in regions of interest (ROI). Contrast-to-noise (CNR) ratios were computed for each ROI according to the formula
# endogenous mouse MPO [3] = target: T1, endogenous mouse MPO; experiment: LPS induced myositis, MR imaging at 4.7 T; type: in vivo; settings: mice with LPS induced myositis
# Method: as §1, §2
# MPO [4] = target: T3, MPO (Homo sapiens, UniProt P05164); experiment: Ga-3 as oxidoreductase reducing substrate, UV-visible spectra with MPO; type: biochemical
# T3 sequence (P05164 49-745): T2 sequence (P05164 49-745)
# Excerpt: (§3) Compound Ga-3 was further tested in vitro as an oxidoreductase reducing substrate. In a preliminary experiment, horseradish peroxidase (HRP), a model oxidoreductase, was used to test the possibility of enzyme-induced oligomerization. […] Well-defined aromatic band centered at 280 nm broadened over the reaction time and extended beyond 330 nm with some residual absorption in the region 350-500 nm. Extension towards the visible range is associated with the extension of the aromatic system as could be expected in the event of oligomerization. After 6 hours no change was observed and the reaction reaches levels close to 90% of conversion after approximately 2 hours. If MPO was used instead of HRP, the obtained results (see FIG. 20C) were similar.
# [5] = target: T4, horseradish peroxidase (HRP) (Armoracia rusticana, UniProt P00433); experiment: Ga-3 as oxidoreductase reducing substrate, UV-visible spectra with HRP/H2O2; type: biochemical; set-up: purchased Sigma; settings: after approximately 2 hours
# T4 sequence (P00433 31-338): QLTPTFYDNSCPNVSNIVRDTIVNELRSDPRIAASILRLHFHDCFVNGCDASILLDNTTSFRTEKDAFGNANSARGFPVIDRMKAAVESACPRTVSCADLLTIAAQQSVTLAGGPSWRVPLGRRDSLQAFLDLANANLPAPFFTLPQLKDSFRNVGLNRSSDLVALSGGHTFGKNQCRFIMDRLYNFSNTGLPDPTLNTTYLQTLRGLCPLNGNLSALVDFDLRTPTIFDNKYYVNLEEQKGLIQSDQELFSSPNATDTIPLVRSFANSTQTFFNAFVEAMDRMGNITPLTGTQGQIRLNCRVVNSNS
# Excerpt: as §3
# MPO [6] = target: T3, MPO; experiment: SPECT/CT imaging of MPO/Matrigel implants with 67Ga tracer; type: in vivo, mouse
# Method: SPECT imaging and biodistribution: A solution of 80-100 μCi of [^67Ga]—I in 200 μl of saline were injected intravenously into mice prepared as follows: ten-week old C57BL6 male mice (Jackson Laboratories) were injected with 400 μL of a mixture of Matrigel™ (Beckton-Dickinson) and MEM (Cambrex) into the thighs of each mouse one hour prior to imaging. The right thigh mixture also contained 15 U of MPO and 4 μg of glucose oxidase (Calbiochem), while the left thigh mixture contained no enzyme to serve as an internal control. Glucose oxidase was included to ensure local generation of hydrogen peroxide. […] Six hours after injection, the animals were sacrificed and biodistribution was determined in major organs. The % dose accumulated per gram of major organs was determined by using a gamma counter.
# To test our hypothesis in vivo, we prepared an inflammation model in mice. The model consisted in the subcutaneous implantation (1 hour before radiotracer injection) of Matrigel/MPO/GO mixture in the right thigh of each mouse. The left thigh mixture contained no enzyme and served as internal control. Matrigel is a basement membrane matrix gel that can be used for immobilizing human MPO and peroxide-generating enzyme. After injecting [^67Ga]—I intravenously, SPECT/CT imaging was performed 4 hours later.
# [7] = Biodistribution of 67Ga tracer; type: in vivo, mouse; settings: mice n=4; 6 hours after the injection
# Method: SPECT imaging and biodistribution: A solution of 80-100 μCi of [^67Ga]—I in 200 μl of saline were injected intravenously into mice prepared as follows: ten-week old C57BL6 male mice (Jackson Laboratories) were injected with 400 μL of a mixture of Matrigel™ (Beckton-Dickinson) and MEM (Cambrex) into the thighs of each mouse one hour prior to imaging. The right thigh mixture also contained 15 U of MPO and 4 μg of glucose oxidase (Calbiochem), while the left thigh mixture contained no enzyme to serve as an internal control. Glucose oxidase was included to ensure local generation of hydrogen peroxide. The animals were imaged 3 hours after injection on a high resolution X-SPECT/CT system (Gamma Medica). Six hours after injection, the animals were sacrificed and biodistribution was determined in major organs. The % dose accumulated per gram of major organs was determined by using a gamma counter.
smiles,measurement,setting,value
"O=C([O-])CN(CCN(CC(=O)[O-])CC(=O)O)CCN(CC(=O)[O-])CC(=O)O.[Gd+3] [DTPA(Gd), reference compound]",difference in enhancement LPS side vs control,endogenous mouse MPO [1],no significant difference in enhancement
same,enhancement of MPO implant compared with control implant,[2],no visual difference or CNR difference
same,enhancement of MPO implant compared with control implant,[2]; listed as Magnevist,did not show any difference
same,enhancement at 50 minutes after injection,endogenous mouse MPO [3],significant wash-out of the enhancement
CC(=O)N1CCCCCNC(=O)CCC(=O)N2CCCCCNC(=O)CCC(=O)N(CCCCCNC(=O)Cc3c[nH]c4ccc(O)cc34)[O][Ga]([O]1)[O]2 [Ga-3],result with MPO compared with HRP,MPO [4],similar
same,conversion,[5],~90%
CC(=O)N1CCCCCNC(=O)CCC(=O)N2CCCCCNC(=O)CCC(=O)N(CCCCCNC(=O)Cc3c[nH]c4ccc(O)cc34)[O][67Ga]([O]1)[O]2 [[^67Ga]-3],difference between right (MPO) and left (control) thigh,"MPO [6]; mice, 6 hours after the injection",around 60%
same,intensity of MPO implant vs control implant,MPO [6]; mouse SPECT/CT fusion images,higher intensity
same,residual radioactivity in liver,[7],~1.4%
same,residual radioactivity in the bowel,[7],~7.8%
same,residual radioactivity in the rest of the organs,[7],below 0.5%
